The text below walks through data of US7662896B2, “Fluorochemical sulfonamide surfactants” (3M Innovative Properties Company, priority 1999, dated 2010).

For series [1], the system named is SPF-bred Sprague Dawley rats. In words: 28-day oral toxicity study by daily gavage in the rat. The settings on record: 28 days daily oral gavage; 3 (C8), 10 (C6), 30 (C4) mg/kg body weight/day. The class given is in vivo. The procedure:
(§1) A 28-day oral toxicity study with perfluorooctanesulfonate (C8F17SO3^−) was conducted by daily gavage in the rat followed by 14 and 28 day recovery periods. The dose levels for the study were selected to be 0 mg/kg body weight/day for species control, and 3 mg/kg body weight/day for potassium perfluorooctanesulfonate. The potassium perfluorooctanesulfonate was formulated in 1% aqueous carboxymethyl cellulose and administered daily for 28 days by oral gavage to SPF-bred Sprague Dawley rats. A vehicle control group and a treated group were tested, each consisting of 8 male and 8 female rats. An extra 3 rats per sex per group were allowed 14 days of recovery, and another 3 rats per sex per group were allowed 28 days of recovery.

The nature of series [2]: Amount of perfluoroalkylsulfonate in male rat liver tissue (HPLC/ESMS/MS). Type of series: in vivo. The settings on record: for Amount (ppm) of Sulfonate Day 1N* / Amount (ppm) of Sulfonate Day 1 / Amount (ppm) of Sulfonate Day 14N* / Amount (ppm) of Sulfonate Day 14 / Amount (ppm) of Sulfonate Day 28N* / Amount (ppm) of Sulfonate Day 28: male rat liver; for Amount (ppm) of Sulfonate Day 1N*: normalized to a feeding level of 3 mg/kg body weight per day; for Amount (ppm) of Sulfonate Day 1: day 1 after 28 day dosing at 3 (C8), 10 (C6), 30 (C4) mg/kg/day; for Amount (ppm) of Sulfonate Day 14N* / Amount (ppm) of Sulfonate Day 28N*: normalized to 3 mg/kg body weight per day; for Amount (ppm) of Sulfonate Day 14: day 14 of recovery; for Amount (ppm) of Sulfonate Day 28: day 28 of recovery. The procedure:
as §1
Extracted liver tissue samples from the sacrificed rats of the study were homogenized and extracted using an ion-pairing extraction procedure. The extracts were quantitatively analyzed using high-pressure liquid chromatography/electrospray tandem mass spectroscopy (HPLC/ESMS/MS) and evaluated.

Series [3] can be described thus: Surface tension in water (Test Procedure I, Kruss K12 Tensiometer). The class given is physicochemical. The settings on record: for Surface Tension (dynes/cm) at Various Surfactant Concentrations: 10 ppm: 10 ppm in water; for Surface Tension (dynes/cm) at Various Surfactant Concentrations: 100 ppm: 100 ppm in water; for Surface Tension (dynes/cm) at Various Surfactant Concentrations: 1000 ppm: 1000 ppm in water.
Protocol: Test Procedure I—Surface Tension Determination
All surface tensions were determined using a Kruss K12 Tensiometer. […] The program was run using a Wilhelmy platinum plate (PL12) and glass sample vessel (GL7).

Series [4] is described as follows: Amount of perfluoroalkylsulfonate in male rat liver tissue (HPLC/ESMS/MS). The class given is in vivo. The settings on record: for Elimination from the body (in words): rat, tested as potassium salt.
The nature of series [5]: Wetting and film characterization on glass surface (Test Procedure III). The class given is physicochemical. As for the experimental part:
Test Procedure III—Wetting and Film Characterization on Glass Surface
A solution of the surfactant to be tested was prepared at 0.01% by weight in HPLC grade water. The surfactant solution pH was measured and if necessary, pH was adjusted to 9 by adding several drops of 1% NH4OH. Glass plates were cleaned using Windex and a squeegee. Cleaned plates placed on top of 5.1 cm by 5.1 cm by 10.2 cm wood supports, which were laid out in a parallel arrangement. Two glass plates were used for each surfactant solution and laid out adjacent to each other. Surfactant solution (10 drops) was placed on each of the two plates and observed for solution hydrophilic or hydrophobic characteristics. The solution was considered hydrophilic if it was spread out and hydrophobic if it beaded up. The surfactant solutions were allowed to air dry and the resulting film on the glass plate observed for solution autophilic or autophobic properties. The solution was considered autophilic if it dried as a sheet and autophobic if it dried in separate puddles. […] On one of the plates with the dried surfactant film was placed 10 drops of the same surfactant solution on top of the area with the dry film. […] On the other plate was placed 10 drops of HPLC grade water on top of the area with the dry film, and hydrophilic or hydrophobic characteristics were observed.

Series [6] is described as follows: Contact angle measurement on glass cover slips (Test Procedure II). The class given is physicochemical. The procedure:
Test Procedure II—Contact Angle Measurement
Glass cover slips were rinsed with HPLC water and allow to air dry. The surfactant to be tested was mixed at 0.01 weight % with HPLC water. The pH was measured and if below 9, the pH was adjust to 9 by adding several drops of 1% NH4OH. The surface tension of the surfactant solution was determined using Test Procedure I.
A clean, dry glass cover slip was placed in the clamp and lower to ˜1 mm above the surface of the surfactant/water solution. Velocity search was set at 6 mm/min and velocity measure was set at 4 mm/min. Immersion depth was at least 10 mm, depending on the size of the cover slip. Advancing and receding contact angles were measured with 3 cycles. The cover slip was allowed to dry in the clamp, above the solution, for ten minutes. Advancing and receding contact angles were measured a second time with 3 cycles.

Setting [7] is: 28 days following completion of feeding.
The mark [8] stands for this setting: 28 days following completion of feeding, normalized to the same feeding levels.
Where [9] appears, read: immediately following completion of feeding.
The mark [10] stands for this setting: 0.01 weight % solution air dried on glass.
Setting [11] is: 0.01 weight % solution, glass with a film of dried surfactant solution.
Where [12] appears, read: 0.01 weight % surfactant solution in HPLC water.

Where only a bound is given, the exact number is not on record here.

As for `O=S(=O)(O)C(F)(F)C(F)(F)C(F)(F)C(F)(F)C(F)(F)C(F)(F)F` [C6F13SO3^−, perfluorohexanesulfonate], the “Observed effects in treated rats” value in series [1] was “comparable, but less persistent than those of Comparative Example C22”. Moreover, in series [2] (setting [7]), the “Factor lower than C8F17SO3^− in liver” value came to 6.5. In series [2] (setting [8]), the “Factor lower than C8F17SO3^− in liver” value amounted to 21.5. In series [2] (setting [9]), the “Factor lower than C8F17SO3^− in liver” value was determined as 1.3. For the same compound, in series [2], the “Amount (ppm) of Sulfonate Day 1N*” value turned out to be 98 ppm, the “Amount (ppm) of Sulfonate Day 1” value turned out to be 327 ± 52 ppm, the “Amount (ppm) of Sulfonate Day 14N*” value turned out to be 19 ppm and the “Amount (ppm) of Sulfonate Day 14” value is 61.9 ± 11.7 ppm. Also, in series [2], the “Amount (ppm) of Sulfonate Day 28N*” value worked out at 11 ppm and the “Amount (ppm) of Sulfonate Day 28” value amounted to 36.3 ± 7.4 ppm.

On to `O=S(=O)([O-])C(F)(F)C(F)(F)C(F)(F)C(F)(F)F.[K+]` [Example C4F9SO3K, Potassium perfluorobutanesulfonate], for which, in series [3], the “Surface Tension (dynes/cm) at Various Surfactant Concentrations: 10 ppm” value is recorded as 70 dynes/cm, the “Surface Tension (dynes/cm) at Various Surfactant Concentrations: 100 ppm” value amounted to 67.5 dynes/cm and the “Surface Tension (dynes/cm) at Various Surfactant Concentrations: 1000 ppm” value came out at 53 dynes/cm. In series [4] (setting [7]), the “Factor lower than C6F13SO3^− in liver” value is reported as over 1400. In addition, the “Factor lower than C6F13SO3^− in liver” value in series [4] (setting [8]) is on record as 4400. Besides, the “Factor lower than C6F13SO3^− in liver” value in series [4] (setting [9]) was over 100. Also, in series [4], the “Elimination from the body (in words)” value is “unexpectedly fast and effective elimination”. In series [4] (listed as perfluorobutylsulfonate), the “Elimination from the body (in words)” value was “eliminates from the body much more effectively than perfluorohexylsulfonate and even more effectively than perfluorooctylsulfonate”. Besides, the “Observed effects in treated rats” value in series [1] is “No clear systematic toxicity, nor organ dysfunction at macroscopic or microscopic levels were observed”. Also, in series [2], the “Amount (ppm) of Sulfonate Day 1N*” value is recorded as 0.31 ppm, the “Amount (ppm) of Sulfonate Day 1” value was determined as 3.09 ± 1.58 ppm, the “Amount (ppm) of Sulfonate Day 14N*” value came to 0.0126 ppm and the “Amount (ppm) of Sulfonate Day 14” value is 0.126 ± 0.084 ppm. Also, in series [2], the “Amount (ppm) of Sulfonate Day 28N*” value is 0.0025 ppm and the “Amount (ppm) of Sulfonate Day 28” value is reported as 0.025 ± 0.015 ppm.

Regarding `O=S(=O)([O-])C(F)(F)C(F)(F)C(F)(F)C(F)(F)C(F)(F)C(F)(F)C(F)(F)C(F)(F)F.[K+]` [Example C8F17SO3K, potassium perfluorooctanesulfonate], in series [3], the “Surface Tension (dynes/cm) at Various Surfactant Concentrations: 10 ppm” value turned out to be 67.7 dynes/cm, the “Surface Tension (dynes/cm) at Various Surfactant Concentrations: 100 ppm” value is given as 54.1 dynes/cm and the “Surface Tension (dynes/cm) at Various Surfactant Concentrations: 1000 ppm” value was determined as 33.1 dynes/cm. The “Observed effects in treated rats” value in series [1] is “decreased body weight, decreased blood cholesterol, increased liver size, and hepatocyte hypertrophy”. In series [2], the “Amount (ppm) of Sulfonate Day 1N*” value is 419 ppm, the “Amount (ppm) of Sulfonate Day 1” value amounted to 419 ± 86 ppm, the “Amount (ppm) of Sulfonate Day 14N*” value came to 309 ppm and the “Amount (ppm) of Sulfonate Day 14” value came to 309 ± 34 ppm. Also, in series [2], the “Amount (ppm) of Sulfonate Day 28N*” value was 237 ppm and the “Amount (ppm) of Sulfonate Day 28” value was found to be 237 ± 25 ppm.

As for `CCN(CC(=O)[O-])S(=O)(=O)C(F)(F)C(F)(F)C(F)(F)C(F)(F)C(F)(F)C(F)(F)C(F)(F)C(F)(F)F.[K+]` [FC-129, C8F17SO2N(C2H5)CH2CO2^−K^+], the “Surface Tension (dynes/cm) at Various Surfactant Concentrations: 20 ppm” value in series [3] (20 ppm in water) came to 49 dynes/cm. The “Surface Tension (dynes/cm) at Various Surfactant Concentrations: 23 ppm” value in series [3] (23 ppm in water) is given as 29.5 dynes/cm. Further, the “Surface Tension (dynes/cm) at Various Surfactant Concentrations: 83 ppm” value in series [3] (83 ppm in water) came to 29 dynes/cm. The “Surface Tension (dynes/cm) at Various Surfactant Concentrations: 164 ppm” value in series [3] (164 ppm in water) worked out at 24 dynes/cm. Besides, in series [3] (200 ppm in water), the “Surface Tension (dynes/cm) at Various Surfactant Concentrations: 200 ppm” value was determined as 23 dynes/cm. Moreover, the “Surface Tension (dynes/cm) at Various Surfactant Concentrations: 273 ppm” value in series [3] (273 ppm in water) turned out to be 17.5 dynes/cm. For the same compound, in series [3] (421 ppm in water), the “Surface Tension (dynes/cm) at Various Surfactant Concentrations: 421 ppm” value is on record as 16 dynes/cm. For the same compound, the “Surface Tension (dynes/cm) at Various Surfactant Concentrations: 617 ppm” value in series [3] (617 ppm in water) worked out at 15.5 dynes/cm. Besides, the “Surface Tension (dynes/cm) at Various Surfactant Concentrations: 875 ppm” value in series [3] (875 ppm in water) was 16 dynes/cm. The “Surface Tension (dynes/cm) at Various Surfactant Concentrations: 1032 ppm” value in series [3] (1032 ppm in water) worked out at 16.5 dynes/cm. The “Surface Tension (dynes/cm) at Various Surfactant Concentrations: 2000 ppm” value in series [3] (2000 ppm in water) amounted to 17 dynes/cm. For the same compound, in series [5] (setting [10]), the Dried film clarity result was “clear” and the “Dried film: autophilic or autophobic” value is on record as “autophilic”. For the same compound, the “Solution on clean glass: hydrophilic or hydrophobic” value in series [5] (0.01 weight % solution in HPLC grade water) was “hydrophobic”. The “Characteristic the dried film gave to water and to the surfactant solution” value in series [5] (10 drops placed on the dried film) is listed as “hydrophilic”. In series [6] (setting [11]), the Advancing CA on Dried Surfactant was found to be 64.6 ° and the Receding CA on Dried Surfactant turned out to be 12.2 °. In series [6] (setting [12]), this compound displayed an Advancing CA on Clean Glass of 61.6 ° and a Receding CA on Clean Glass of 7 °.
